Test results as given in PubChem BioAssay (NCI).
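Compound exposure: 48 hours, 5 concentrations, 96-well plates. At the GI50, growth is halved. TGI denotes the concentration required for complete inhibition of growth.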

What was measured:
Assay in all cases: inhibition of tumour cell growth, NCI panel, 48 h
PC-3 prostate = system: PC-3 prostate
HCT-116 colon = system: HCT-116 colon
COLO 205 colon = system: COLO 205 colon
786-0 renal = system: 786-0 renal
IGROV1 ovarian = system: IGROV1 ovarian
HCC-2998 colon = system: HCC-2998 colon
MDA-MB-435 = system: MDA-MB-435
SR leukemia = system: SR leukemia
M19-MEL melanoma = system: M19-MEL melanoma
KM20L2 colon = system: KM20L2 colon

Cc1cc(-c2ccco2)cc(C)c1/C=C/c1cncc(-c2nn[nH]n2)c1
GI50 (PC-3 prostate): > 25 µM
TGI (PC-3 prostate): > 25 µM
GI50 (HCT-116 colon): > 25 µM
TGI (HCT-116 colon): > 25 µM
GI50 (COLO 205 colon): > 25 µM
TGI (COLO 205 colon): > 25 µM
GI50 (786-0 renal): > 25 µM
TGI (786-0 renal): > 25 µM
GI50 (IGROV1 ovarian): > 25 µM
TGI (IGROV1 ovarian): > 25 µM
GI50 (HCC-2998 colon): > 25 µM
TGI (HCC-2998 colon): > 25 µM
GI50 (MDA-MB-435): > 25 µM
TGI (MDA-MB-435): > 25 µM
GI50 (SR leukemia): > 25 µM
TGI (SR leukemia): > 25 µM

N#Cc1cccc(C2C3=C(COC3=O)N(CCO)c3cc4c(cc32)CCC4)c1 (centres undefined)
GI50 (PC-3 prostate): 0.15 µM
TGI (PC-3 prostate): > 50 µM
GI50 (HCT-116 colon): 0.143 µM
TGI (HCT-116 colon): 13.3 µM
GI50 (COLO 205 colon): 0.146 µM
TGI (COLO 205 colon): 1.28 µM
GI50 (786-0 renal): 0.18 µM
TGI (786-0 renal): > 50 µM
GI50 (IGROV1 ovarian): 0.172 µM
TGI (IGROV1 ovarian): > 43.8 µM
GI50 (HCC-2998 colon): 0.186 µM
TGI (HCC-2998 colon): > 30.4 µM
GI50 (MDA-MB-435): 0.0171 µM
TGI (MDA-MB-435): 0.0662 µM
GI50 (SR leukemia): 0.0486 µM
TGI (SR leukemia): > 50 µM

O=[N+]([O-])c1ccc(/C=C\c2ccc3c(c2)OCO3)c([N+](=O)[O-])c1
TGI (PC-3 prostate): 63.4 µM
TGI (HCT-116 colon): 21.4 µM
TGI (COLO 205 colon): 32.3 µM
TGI (786-0 renal): > 100 µM
TGI (IGROV1 ovarian): 24.7 µM
TGI (HCC-2998 colon): 27.6 µM
TGI (MDA-MB-435): 22.1 µM
TGI (SR leukemia): 23.6 µM

Nc1ncnc2c1ncn2CCOC(c1ccccc1)P(=O)(O)O (centres undefined)
TGI (M19-MEL melanoma): > 100 µM
TGI (HCT-116 colon): > 100 µM
TGI (COLO 205 colon): > 100 µM
TGI (786-0 renal): > 100 µM
TGI (KM20L2 colon): > 100 µM
TGI (IGROV1 ovarian): > 100 µM
TGI (HCC-2998 colon): > 100 µM
TGI (SR leukemia): > 100 µM

CC(C)=CC(=O)CC(=O)C(=O)NCCNC(=O)C(=O)CC(=O)C=C(C)C
TGI (M19-MEL melanoma): > 50 µM
TGI (HCT-116 colon): > 50 µM
TGI (COLO 205 colon): > 50 µM
TGI (786-0 renal): > 50 µM
TGI (KM20L2 colon): > 50 µM
TGI (IGROV1 ovarian): > 50 µM
TGI (HCC-2998 colon): > 50 µM

O=C(/C=C/c1cccc(Oc2ccc(Cl)cc2)c1)c1ccccc1
GI50 (PC-3 prostate): 19.7 µM
TGI (PC-3 prostate): 37.8 µM
GI50 (HCT-116 colon): 20.6 µM
TGI (HCT-116 colon): 41.7 µM
GI50 (COLO 205 colon): 63.4 µM
TGI (COLO 205 colon): 283 µM
GI50 (786-0 renal): 19.9 µM
TGI (786-0 renal): 43.6 µM
GI50 (IGROV1 ovarian): 28.1 µM
TGI (IGROV1 ovarian): 101 µM
GI50 (HCC-2998 colon): 117 µM
TGI (HCC-2998 colon): 255 µM
GI50 (MDA-MB-435): 21.9 µM
TGI (MDA-MB-435): 50.9 µM
GI50 (SR leukemia): 22.9 µM
TGI (SR leukemia): 78.7 µM

C1CCN2CC3CONC3C2C1 (centres undefined)
TGI (M19-MEL melanoma): > 100 µM
TGI (HCT-116 colon): > 100 µM
TGI (COLO 205 colon): > 100 µM
TGI (786-0 renal): > 100 µM
TGI (KM20L2 colon): > 100 µM
TGI (IGROV1 ovarian): > 100 µM
TGI (HCC-2998 colon): > 100 µM

CC1(C)CC(O)CC(C)(C)N1.CC1(C)CC(O)CC(C)(C)N1.CC1(C)CC(O)CC(C)(C)N1.CC1(C)CC(O)CC(C)(C)N1.Cl.[Ti]
GI50 (M19-MEL melanoma): > 100 µM
TGI (M19-MEL melanoma): > 100 µM
GI50 (HCT-116 colon): > 100 µM
TGI (HCT-116 colon): > 100 µM
GI50 (COLO 205 colon): > 100 µM
TGI (COLO 205 colon): > 100 µM
GI50 (786-0 renal): > 100 µM
TGI (786-0 renal): > 100 µM
GI50 (KM20L2 colon): > 100 µM
TGI (KM20L2 colon): > 100 µM
GI50 (IGROV1 ovarian): > 100 µM
TGI (IGROV1 ovarian): > 100 µM
GI50 (HCC-2998 colon): > 100 µM
TGI (HCC-2998 colon): > 100 µM
GI50 (SR leukemia): > 100 µM
TGI (SR leukemia): > 100 µM

COc1ccc2nc(-c3ccc(O)cc3)ccc2c1
TGI (M19-MEL melanoma): > 100 µM
TGI (HCT-116 colon): > 100 µM
TGI (COLO 205 colon): > 100 µM
TGI (786-0 renal): > 100 µM
TGI (KM20L2 colon): > 100 µM
TGI (IGROV1 ovarian): > 100 µM
TGI (HCC-2998 colon): > 100 µM
TGI (SR leukemia): > 100 µM

CN(c1ccc(NC(=O)NCCN2CCOCC2)cc1)c1ccnc(Nc2ccc(CS(C)(=O)=O)cc2)n1
GI50 (PC-3 prostate): > 25 µM
TGI (PC-3 prostate): > 25 µM
GI50 (HCT-116 colon): > 25 µM
TGI (HCT-116 colon): > 25 µM
GI50 (COLO 205 colon): > 16.8 µM
TGI (COLO 205 colon): > 25 µM
GI50 (786-0 renal): > 25 µM
TGI (786-0 renal): > 25 µM
GI50 (IGROV1 ovarian): > 25 µM
TGI (IGROV1 ovarian): > 25 µM
GI50 (HCC-2998 colon): > 25 µM
TGI (HCC-2998 colon): > 25 µM
GI50 (MDA-MB-435): > 25 µM
TGI (MDA-MB-435): > 25 µM
GI50 (SR leukemia): > 25 µM
TGI (SR leukemia): > 25 µM

Cc1n(Cc2ccc3ccccc3n2)cc[n+]1Cc1ccc2ccccc2c1
GI50 (PC-3 prostate): 0.467 µM
TGI (PC-3 prostate): 10.6 µM
GI50 (HCT-116 colon): 0.61 µM
TGI (HCT-116 colon): 10.4 µM
GI50 (COLO 205 colon): 0.302 µM
TGI (COLO 205 colon): 1.1 µM
GI50 (786-0 renal): 4.36 µM
TGI (786-0 renal): 18.2 µM
GI50 (IGROV1 ovarian): 1.12 µM
TGI (IGROV1 ovarian): 4.76 µM
GI50 (HCC-2998 colon): 0.819 µM
TGI (HCC-2998 colon): 7.24 µM
GI50 (MDA-MB-435): 0.412 µM
TGI (MDA-MB-435): 2.69 µM
GI50 (SR leukemia): 0.565 µM
TGI (SR leukemia): 3.24 µM

C/C(CC(=O)Nc1cccc(Cl)c1C)=N\N=C(N)N
TGI (M19-MEL melanoma): > 100 µM
TGI (HCT-116 colon): > 100 µM
TGI (COLO 205 colon): > 100 µM
TGI (786-0 renal): > 100 µM
TGI (KM20L2 colon): > 100 µM
TGI (IGROV1 ovarian): > 100 µM
TGI (HCC-2998 colon): > 100 µM

CCN(CC)CCS(=O)(=O)CCNc1ccnc2cc(Cl)ccc12
GI50 (PC-3 prostate): 3.82 µM
TGI (PC-3 prostate): > 100 µM
GI50 (HCT-116 colon): 0.834 µM
TGI (HCT-116 colon): 4.63 µM
GI50 (COLO 205 colon): 2.66 µM
TGI (COLO 205 colon): 8.31 µM
GI50 (786-0 renal): 2.84 µM
TGI (786-0 renal): 19.9 µM
GI50 (IGROV1 ovarian): 2.26 µM
TGI (IGROV1 ovarian): 16.7 µM
GI50 (HCC-2998 colon): 8.81 µM
TGI (HCC-2998 colon): > 23.8 µM
GI50 (MDA-MB-435): 1.65 µM
TGI (MDA-MB-435): > 20.5 µM
GI50 (SR leukemia): 0.812 µM
TGI (SR leukemia): > 46.3 µM

CCc1ccc(C2=NN(c3ccc(S(C)(=O)=O)cc3)C(=O)CC2)cc1
GI50 (PC-3 prostate): 2.31 µM
TGI (PC-3 prostate): > 100 µM
GI50 (HCT-116 colon): 0.942 µM
TGI (HCT-116 colon): > 39.2 µM
GI50 (COLO 205 colon): 1.05 µM
TGI (COLO 205 colon): 7.75 µM
GI50 (786-0 renal): 4.39 µM
TGI (786-0 renal): 54.4 µM
GI50 (IGROV1 ovarian): 2.71 µM
TGI (IGROV1 ovarian): > 74.3 µM
GI50 (HCC-2998 colon): 3.96 µM
TGI (HCC-2998 colon): 33.4 µM
GI50 (MDA-MB-435): 0.212 µM
TGI (MDA-MB-435): 0.804 µM
GI50 (SR leukemia): 0.42 µM
TGI (SR leukemia): 21.7 µM

O=c1c2cccc3cccc(c4n1CCCN=4)c32
TGI (M19-MEL melanoma): > 100 µM
TGI (HCT-116 colon): > 100 µM
TGI (COLO 205 colon): > 100 µM
TGI (786-0 renal): > 100 µM
TGI (KM20L2 colon): > 100 µM
TGI (IGROV1 ovarian): > 100 µM
TGI (SR leukemia): > 100 µM

COc1cc(OC)c(/C=C/C(=O)c2c(N)cc(OC)cc2OC)c(OC)c1
GI50 (PC-3 prostate): 1.77 µM
TGI (PC-3 prostate): > 100 µM
GI50 (HCT-116 colon): 0.384 µM
TGI (HCT-116 colon): > 100 µM
GI50 (COLO 205 colon): 2.94 µM
TGI (COLO 205 colon): > 45.1 µM
GI50 (786-0 renal): 1.49 µM
TGI (786-0 renal): > 75 µM
GI50 (IGROV1 ovarian): 0.797 µM
TGI (IGROV1 ovarian): > 100 µM
GI50 (HCC-2998 colon): 1.25 µM
TGI (HCC-2998 colon): > 54.1 µM
GI50 (MDA-MB-435): 0.0776 µM
TGI (MDA-MB-435): 0.514 µM
GI50 (SR leukemia): 0.242 µM
TGI (SR leukemia): > 100 µM

Nc1c(C(=O)Nc2ccccc2O)[n+]([O-])c2ccccc2[n+]1[O-]
TGI (M19-MEL melanoma): 27.7 µM
TGI (HCT-116 colon): > 100 µM
TGI (COLO 205 colon): > 100 µM
TGI (786-0 renal): > 100 µM
TGI (KM20L2 colon): > 100 µM
TGI (IGROV1 ovarian): > 100 µM
TGI (SR leukemia): > 100 µM

C=CC[PH+](c1ccccc1)c1ccccc1.C=CC[PH+](c1ccccc1)c1ccccc1.[Pt+2].[S-]c1ncccn1.[S-]c1ncccn1
GI50 (PC-3 prostate): 11 µM
TGI (PC-3 prostate): 37.7 µM
GI50 (HCT-116 colon): 2.17 µM
TGI (HCT-116 colon): 4.88 µM
GI50 (COLO 205 colon): 5.24 µM
TGI (COLO 205 colon): 26.9 µM
GI50 (786-0 renal): 18.8 µM
TGI (786-0 renal): 48.1 µM
GI50 (IGROV1 ovarian): 15.1 µM
TGI (IGROV1 ovarian): 43.8 µM
GI50 (HCC-2998 colon): 19.1 µM
TGI (HCC-2998 colon): 41.5 µM
GI50 (MDA-MB-435): 16.3 µM
TGI (MDA-MB-435): 33.8 µM
GI50 (SR leukemia): 3.11 µM
TGI (SR leukemia): 60.7 µM
